Counter-ions that a name gives are not always drawn.

Experiment [1] deals with diabetic neuropathy patients. Conditions: Phase III controlled clinical trial; cited from earlier work.
Experiment [2] deals with streptozotocin-induced diabetic mouse. The experiment can be described thus: Assessment (threshold analysis) of thermal nociceptive response, tail-flick test, using diabetic mouse. In kind it is in vivo, male ICR mice. Here is the method: Test: Assessment (Threshold Analysis) of Thermal Nociceptive Response Using Diabetic Mouse (in vivo)
This test was performed according to the method of Osawa and Kamei [Eur. J. Pharmacol., 372, 221–228 (1999)]. […]
The assessment was performed using a tail-flick test. To be specific, photothermic stimulation was given to the tail of mouse, and the reaction latency until it moves the tail feeling the heat was measured. How the reaction latency changed in the diabetes group as compared to the normal group and the results with administration of 100 mg/kg of CDP-choline to the diabetes group are shown in FIG. 1.
(See the Method of Osawa and Kamei [Eur. J. Pharmacol., 372, 221–228 (1999)])
Streptozotocin (200 mg/kg) dissolved in citrate buffer (pH 4.5) was administered into the tail vein of male ICR mice (12–13 per group, body weight: about 20 g) to induce diabetes. […]
The assessment was performed using a tail-flick test.
Test: Assessment (Threshold Analysis) of Thermal Nociceptive Response Using diabetic Mice (in vivo)
CDP-choline Na was dissolved in distilled water and orally administered at a dose of 100 mg/kg once a day starting from the time point when 8 weeks passed from the administration of streptozotocin. […]
(In hot-plate and tail-flick tests a longer latency is read as antinociception.)

For experiment [3], the system named is streptozotocin-induced diabetic mice. The experiment can be described thus: Charcoal powder transportability test of gastrointestinal tract using diabetic mice. The class given is in vivo, male ICR mice. To be noted: diabetes group. Here is the method:
Test: Charcoal Powder Transportability Test of Gastrointestinal Tract Using Diabetic Mice (in vivo)
Streptozotocin (200 mg/kg) dissolved in citrate buffer (pH 4.5) was intraperitoneally administered to male ICR mice (7–11 per group, body weight: about 20 g) to induce diabetes.
CDP-choline Na was dissolved in distilled water and orally administered at a dose of 100 mg/kg. once a day from immediately after induction of diabetes.
The mice that had undergone streptozotocin administration 8 weeks before were used for the test. A 5% activated charcoal powder suspension was prepared using 0.5% aqueous carboxymethylcellulose solution, and orally administered at 0.1 ml/mice to mice fasted from the previous day. After 30 min, the gastrointestinal tract from pyloric portion of stomach to rectum was enucleated and the whole length was measured. In addition, the position of the activated charcoal powder after movement was confirmed and the distance of movement from pyloric portion of stomach was measured. This was converted to numerical values based on the whole length of from pyloric portion of stomach to rectum as 100%, and the data was processed and taken to show charcoal powder transportability of gastrointestinal tract.
How the charcoal powder transportability of gastrointestinal tract changed in the diabetes group as compared to the normal group and the results with administration of 100 mg/kg of CDP-choline to the diabetes group are shown in Table 1. In Table 1, the normal group, diabetes group and diabetes+CDP-choline administration group were divided into three criteria of less than 40%, not less than 40% and less than 60%, and not less than 60% of charcoal powder transportability of gastrointestinal tract, and the number of incidents in each criterion is shown in percentage.

For experiment [4], the system named is peripheral neuropathy induced by taxol. Conditions: reported in WO 00/11952; cited from earlier work.
Where [5] appears, read: 100 mg/kg oral once a day from induction, 8 weeks after streptozotocin.

Consider `Cc1cccc(C)c1OCC(C)N` (stereo not shown) [mexiletine hydrochloride], for which the “spontaneous pain relieving rate” value in experiment [1] is reported as “not more than 50%”.

As for `C[N+](C)(C)CCOP(=O)(O)OP(=O)([O-])OC[C@H]1O[C@@H](n2ccc(N)nc2=O)[C@H](O)[C@@H]1O` [CDP-choline, cytidine 5′-diphosphocholine monosodium salt], the “reaction latency prolongation-inhibitory effect” value in experiment [2] (100 mg/kg oral from 8 weeks post-streptozotocin, at the lapse of 11 weeks after streptozotocin) is “significant reaction latency prolongation-inhibitory effect was observed”. The “inhibitory effect on prolongation of reaction latency (diminished sensation of the sensory nerves)” value in experiment [2] (Example 5, oral once a day from 5 weeks post-streptozotocin, 100 mg/kg, FIG. 3 at 7 weeks, similar at 6 or 8 weeks) is given as “nearly completely inhibited”. Further, in experiment [2] (diabetes group, 30 mg/kg oral, from 5 weeks post-streptozotocin, data not shown), the “effect on prolongation of reaction latency” value is “a similar effect was observed”. Besides, the “inhibition of prolongation of reaction latency (diminished sensation)” value in experiment [2] (diabetes group, 100 mg/kg oral once a day from 5 weeks post-streptozotocin, FIG. 2) is listed as “almost completely inhibited”. Also, the “inhibition of biphasic neuropathy (reaction latency, tail-flick)” value in experiment [2] (diabetes group, 100 mg/kg oral once a day from immediately after induction of diabetes, FIG. 1) is “almost completely inhibited”. Further, the “effect on reaction latency (tail-flick)” value in experiment [2] (diabetes group, 300 mg/kg oral, from immediately after induction of diabetes) is given as “a similar effect was found”. In experiment [2] (normal group, 100 or 300 mg/kg), the “effect on reaction latency (tail-flick) in normal group” value is “no effect on the reaction latency”. Moreover, the “inhibition of degradation of charcoal powder transportability of gastrointestinal tract” value in experiment [3] (100 mg/kg oral) is on record as “complete inhibition”. For the same compound, in experiment [3] (setting [5]), the “incidence of mice with charcoal powder transportability of gastrointestinal tract less than 40%” value is given as 0%; the “incidence of mice with charcoal powder transportability of gastrointestinal tract not less than 40% and less than 60%” value is listed as 71.4%; the “incidence of mice with charcoal powder transportability of gastrointestinal tract not less than 60%” value is 28.6%.

On to `CC(=O)OC[C@H]1O[C@@H](n2ccc(=O)[nH]c2=O)[C@H](OC(C)=O)[C@@H]1OC(C)=O` [triacetyluridine], for which the “efficacy for peripheral neuropathy (diminished sensation) induced by taxol” value in experiment [4] is on record as “effective”.

The values are drawn from patent publication US7074773B2, “Pharmaceutical composition for diabetic neuropathy” (priority 2001, dated 2006).
